Test: xn = mol fraction of the nth substance listed
Conditions: 101 kPa, Liquid; for viscosity: Capillary tube (Ostwald / Ubbelohde) method; for speed of sound: Sing-around technique in a fixed-path interferometer; for mass density: Vibrating tube method

CCOCCOCCO [3,6-dioxa-1-octanol] + CCCCCCO
Conditions	mass density [kg/m3]	speed of sound [m/s]	viscosity [mPa·s]
293.15 K, x1 = 0.0515	828.146	1322.4	4.442
293.15 K, x1 = 0.1039	837.651	1324.9	4.111
293.15 K, x1 = 0.1456	845.454	1327.5	3.932
293.15 K, x1 = 0.2078	857.041	1331.1	3.714
293.15 K, x1 = 0.2501	864.989	1334.2	3.614
293.15 K, x1 = 0.3127	876.967	1338.7	3.482
293.15 K, x1 = 0.3517	884.493	1342.1	3.423
293.15 K, x1 = 0.5241	918.471	1358.7	3.279
293.15 K, x1 = 0.6227	938.481	1370.5	3.308
293.15 K, x1 = 0.7217	959.157	1384.3	3.352
293.15 K, x1 = 0.8227	980.826	1400.4	3.384
293.15 K, x1 = 0.915	1000.91	1416.4	3.588
293.15 K, x1 = 1	–	–	3.626
298.15 K, x1 = 0.0515	824.518	1305.4	3.906
298.15 K, x1 = 0.1039	833.976	1308	3.655
298.15 K, x1 = 0.1456	841.738	1310.6	3.495
298.15 K, x1 = 0.2078	853.267	1314.3	3.352
298.15 K, x1 = 0.2501	861.179	1317.4	3.237
298.15 K, x1 = 0.3127	873.107	1322	3.121
298.15 K, x1 = 0.3517	880.591	1325.3	3.066
298.15 K, x1 = 0.5241	914.427	1341.9	2.951
298.15 K, x1 = 0.6227	934.36	1353.8	2.965
298.15 K, x1 = 0.7217	954.955	1367.5	3.009
298.15 K, x1 = 0.8227	976.55	1383.5	3.054
298.15 K, x1 = 0.915	996.56	1399.5	3.235
298.15 K, x1 = 1	–	–	3.278
303.15 K, x1 = 0.0515	820.874	1288.7	3.381
303.15 K, x1 = 0.1039	830.282	1291.3	3.154
303.15 K, x1 = 0.1456	838.004	1293.9	3.026
303.15 K, x1 = 0.2078	849.482	1297.6	2.879
303.15 K, x1 = 0.2501	857.352	1300.7	2.809
303.15 K, x1 = 0.3127	869.225	1305.3	2.726
303.15 K, x1 = 0.3517	876.678	1308.7	2.682
303.15 K, x1 = 0.5241	910.37	1325.3	2.584
303.15 K, x1 = 0.6227	930.226	1337.1	2.605
303.15 K, x1 = 0.7217	950.745	1350.8	2.647
303.15 K, x1 = 0.8227	972.261	1366.7	2.693
303.15 K, x1 = 0.915	992.202	1382.6	2.801
303.15 K, x1 = 1	–	–	2.862
308.15 K, x1 = 0.0515	817.198	1272.1	2.901
308.15 K, x1 = 0.1039	826.564	1274.7	2.72
308.15 K, x1 = 0.1456	834.246	1277.3	2.631
308.15 K, x1 = 0.2078	845.669	1280	2.503
308.15 K, x1 = 0.2501	853.504	1284.2	2.443
308.15 K, x1 = 0.3127	865.322	1288.8	2.374
308.15 K, x1 = 0.3517	872.742	1292.1	2.342
308.15 K, x1 = 0.5241	906.299	1308.8	2.266
308.15 K, x1 = 0.6227	926.073	1320.6	2.278
308.15 K, x1 = 0.7217	946.516	1334.2	2.297
308.15 K, x1 = 0.8227	967.953	1350	2.349
308.15 K, x1 = 0.915	987.826	1365.8	2.445
308.15 K, x1 = 1	–	–	2.507

CCCCCCCCCCO [decan-1-ol] + CCOCCOCCO
x2 = 0
Conditions	viscosity [mPa·s]
293.15 K	13.04
298.15 K	11.19
303.15 K	9.066
308.15 K	7.459
